How the values were obtained:
Mus musculus [1] = assay: Toxicity in Swiss albino mouse assessed as behavioral change at 100 mg/kg, po measured up to 24 hrs; type: organism-based; design: dose 100 mg/kg, route oral; conditions: in vivo
Mus musculus [2] = assay: Toxicity in Swiss albino mouse assessed as mortality at 100 mg/kg, po measured up to 24 hrs; type: organism-based; design: dose 100 mg/kg, route oral; conditions: in vivo
Rattus norvegicus [3] = assay: Antiinflammatory activity in Wistar rat assessed as inhibition of carrageenan-induced paw edema at 20 mg/kg, po administered 30 mins before carrageenan challenge measured after 3 hrs; type: functional
Rattus norvegicus [4] = assay: Antiinflammatory activity in Wistar rat assessed as inhibition of carrageenan-induced paw edema at 20 mg/kg, po administered 30 mins before carrageenan challenge measured after 5 hrs; type: functional
[5] = molecular target: Prostaglandin G/H synthase 1 (Bos taurus, UniProt O62664); assay: Inhibition of bovine COX1 assessed as PGE2 formation preincubated for 10 mins by ELISA
Rattus norvegicus [6] = assay: Ulcerogenic activity in fasted Wistar albino rat at 60 mg/kg, po administered as 3 dose measured after 6 hrs post last dose; type: toxicity, organism-based; design: dose 60 mg/kg, route oral; conditions: in vivo

Prostaglandin G/H synthase 1, sequence (O62664 whole entry): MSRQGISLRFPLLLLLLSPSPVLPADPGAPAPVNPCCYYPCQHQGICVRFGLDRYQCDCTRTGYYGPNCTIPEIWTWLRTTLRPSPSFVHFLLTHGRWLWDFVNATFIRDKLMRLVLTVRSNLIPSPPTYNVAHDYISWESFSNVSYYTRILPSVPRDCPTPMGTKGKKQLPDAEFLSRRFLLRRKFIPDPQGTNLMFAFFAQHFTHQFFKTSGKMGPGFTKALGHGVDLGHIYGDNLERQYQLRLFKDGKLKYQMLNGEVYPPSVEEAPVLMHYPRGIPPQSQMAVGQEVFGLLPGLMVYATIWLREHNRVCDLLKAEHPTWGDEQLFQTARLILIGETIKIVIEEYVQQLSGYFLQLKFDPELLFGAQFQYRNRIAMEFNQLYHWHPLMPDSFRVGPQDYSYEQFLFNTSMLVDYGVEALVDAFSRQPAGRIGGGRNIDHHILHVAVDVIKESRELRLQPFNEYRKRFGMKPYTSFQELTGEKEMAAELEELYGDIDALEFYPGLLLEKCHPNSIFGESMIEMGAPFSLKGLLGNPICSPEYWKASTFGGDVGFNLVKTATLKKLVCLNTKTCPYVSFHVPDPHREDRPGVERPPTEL

Structure (SMILES)	Activity (Mus musculus [1])	Activity (Mus musculus [2])	inhibition in vivo at 20 mg/kg (Rattus norvegicus [3])	inhibition in vivo at 20 mg/kg (Rattus norvegicus [4])	IC50 [5]	Activity (Rattus norvegicus [6])
Cc1cc(O)c(C2=NN(c3ccc(S(N)(=O)=O)cc3)C(c3ccccc3O)C2)c(C)c1Cl (stereo unspecified)	Non-toxic	Non-toxic	79%	75%	65.4 µM	Non-toxic
COc1ccc(C2CC(c3c(O)cc(C)c(Cl)c3C)=NN2c2ccc(S(N)(=O)=O)cc2)cc1OC (stereo unspecified)	–	–	26.7%	45.5%	–	–
Cc1cc(O)c(C2=NN(c3ccc(S(N)(=O)=O)cc3)C(c3ccccc3)C2)c(C)c1Cl (stereo unspecified)	–	–	20%	36.4%	–	–
Cc1cc(O)c(C2=NN(c3ccc(S(N)(=O)=O)cc3)C(c3ccccc3Cl)C2)c(C)c1Cl (stereo unspecified)	–	–	53%	45.5%	–	–
Cc1ccc(-c2cc(C(F)(F)F)nn2-c2ccc(S(N)(=O)=O)cc2)cc1 [CELECOXIB]	–	–	79.6%	82%	–	–
COc1cc(C2CC(c3c(O)cc(C)c(Cl)c3C)=NN2c2ccc(S(N)(=O)=O)cc2)cc(OC)c1OC (stereo unspecified)	–	–	68.4%	75%	–	–

Reference: ChEMBL document CHEMBL1949518, “Synthesis and biological evaluation of some new 2-pyrazolines bearing benzene sulfonamide moiety as potential anti-inflammatory and anti-cancer agents” (Eur J Med Chem, 2011)
